Results reported in patent US10081635B2, “Substituted N-(pyrrolidine-3-yl)-7H-pyrrolo[2,3-D]pyrimidine-4-amine as janus kinase inhibitor” (YANG JI CHEMICAL CO., LTD., priority 2014, dated 2018).
Counter-ions that a name gives are not always drawn. Like-named read-outs stand apart in the source and are kept apart here.

How the values were obtained:
Human JAK3 [1] = molecular target: T1, Human JAK3 (Homo sapiens (Human), UniProt P52333); assay: In vitro kinase inhibition test, JAK3 (33P-ATP filter scintillation); format: biochemical
Human TYK2 [2] = molecular target: T2, Human TYK2 (Homo sapiens (Human), UniProt P29597); assay: In vitro kinase inhibition test, TYK2 (33P-ATP filter scintillation); format: biochemical; conditions: compound at 1 uM; read-out: TYK2 kinase-phosphorylation inhibitory level (% inhibition)
Human JAK1 [3] = molecular target: T3, Human JAK1 (Homo sapiens (Human), UniProt P23458); assay: In vitro kinase inhibition test, JAK1 (33P-ATP filter scintillation); format: biochemical; conditions: compound at 1 uM; read-out: JAK1 kinase-phosphorylation inhibitory level (% inhibition)
Human JAK2 [4] = molecular target: T4, Human JAK2 (Homo sapiens (Human), UniProt O60674); assay: In vitro kinase inhibition test, JAK2 (33P-ATP filter scintillation); format: biochemical
Human JAK1 [5] = molecular target: T3, Human JAK1; assay: In vitro kinase inhibition test, JAK1 (33P-ATP filter scintillation); format: biochemical
Human JAK2 [6] = molecular target: T4, Human JAK2; assay: In vitro kinase inhibition test, JAK2 (33P-ATP filter scintillation); format: biochemical; conditions: compound at 1 uM; read-out: JAK2 kinase-phosphorylation inhibitory level (% inhibition)
Human TYK2 [7] = molecular target: T2, Human TYK2; assay: In vitro kinase inhibition test, TYK2 (33P-ATP filter scintillation); format: biochemical
Human JAK3 [8] = molecular target: T1, Human JAK3; assay: In vitro kinase inhibition test, JAK3 (33P-ATP filter scintillation); format: biochemical; conditions: compound at 1 uM; read-out: JAK3 kinase-phosphorylation inhibitory level (% inhibition)
DBA/1J mice = assay: Collagen-induced arthritis (CIA) model, hind paw edema volume; format: in vivo, mouse; conditions: 50 mg/kg oral once a day
Procedure: 2. Collagen-induced Arthritis (CIA) Model
DBA/1J mice (6 weeks old, male) were purchased from Japan SLC, Inc., and maintained under controlled lighting in a 12-hour light/dark cycle (07:00-19:00). The temperature was maintained at about 22° C., and the mice were allowed to freely have feed and drinking water.
Type II collagen (dissolved in 0.05 M acetic acid (2 mg/mL)) was kept at 4° C. prior to induction. On the first day of induction, prior to a first immunization, a complete Freund's adjuvant and type II collagen in an equal ratio were homogenized in a cooled tube using a homogenizer to obtain an emulsion of the type II collagen and the Freund's adjuvant. 0.1 mL of the emulsion was injected into mouse tails for the first immunization. […]
Therapeutic efficacy of the compounds according to embodiments was determined using a collagen-induced mouse animal model. […]
The degree of arthritic disease was determined based on the degree of paw edema obtained by measuring a volume of mouse hind paws of the experimental animals. A volume change in the hind paws was measured using a volume measuring flowmeter (Plethysmometer, Havard apparatus, USA, Cat no. 760220), wherein the volume was measured by putting the mouse hind legs into a measurement cell, from knee to paw. The volumes of both paws were measured, and a larger volume value between the two was used as a representative value. […]

T1 sequence (P52333 whole entry): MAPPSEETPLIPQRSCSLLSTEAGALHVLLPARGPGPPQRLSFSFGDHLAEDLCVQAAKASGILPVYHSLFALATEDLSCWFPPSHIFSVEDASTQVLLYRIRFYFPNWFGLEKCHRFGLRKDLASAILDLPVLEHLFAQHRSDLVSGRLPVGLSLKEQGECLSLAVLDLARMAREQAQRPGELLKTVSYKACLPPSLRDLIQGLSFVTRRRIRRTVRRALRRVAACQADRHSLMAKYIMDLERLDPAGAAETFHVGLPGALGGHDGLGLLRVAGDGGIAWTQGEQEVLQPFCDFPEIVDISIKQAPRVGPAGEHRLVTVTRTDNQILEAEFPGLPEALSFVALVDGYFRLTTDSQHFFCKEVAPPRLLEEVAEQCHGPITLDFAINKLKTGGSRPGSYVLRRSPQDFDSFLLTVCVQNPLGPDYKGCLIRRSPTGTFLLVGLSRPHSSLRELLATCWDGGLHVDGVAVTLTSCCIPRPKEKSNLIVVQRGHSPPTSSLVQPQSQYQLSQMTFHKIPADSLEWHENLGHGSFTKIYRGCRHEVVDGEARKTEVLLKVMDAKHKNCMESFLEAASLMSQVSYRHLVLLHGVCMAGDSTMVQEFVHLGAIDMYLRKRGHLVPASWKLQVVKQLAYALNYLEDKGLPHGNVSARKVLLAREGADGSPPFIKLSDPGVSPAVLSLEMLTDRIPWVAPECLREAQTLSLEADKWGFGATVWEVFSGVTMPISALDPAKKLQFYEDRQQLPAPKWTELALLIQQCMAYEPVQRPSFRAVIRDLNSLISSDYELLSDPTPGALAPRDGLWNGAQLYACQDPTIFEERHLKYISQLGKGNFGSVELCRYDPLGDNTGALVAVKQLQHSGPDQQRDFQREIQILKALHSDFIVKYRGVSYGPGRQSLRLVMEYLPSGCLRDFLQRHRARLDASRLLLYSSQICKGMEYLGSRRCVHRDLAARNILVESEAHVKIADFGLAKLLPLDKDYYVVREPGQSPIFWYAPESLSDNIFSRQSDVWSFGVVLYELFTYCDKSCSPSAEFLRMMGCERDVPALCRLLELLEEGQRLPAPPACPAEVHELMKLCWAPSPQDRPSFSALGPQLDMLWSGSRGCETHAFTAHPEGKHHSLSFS
T3 sequence (P23458 whole entry): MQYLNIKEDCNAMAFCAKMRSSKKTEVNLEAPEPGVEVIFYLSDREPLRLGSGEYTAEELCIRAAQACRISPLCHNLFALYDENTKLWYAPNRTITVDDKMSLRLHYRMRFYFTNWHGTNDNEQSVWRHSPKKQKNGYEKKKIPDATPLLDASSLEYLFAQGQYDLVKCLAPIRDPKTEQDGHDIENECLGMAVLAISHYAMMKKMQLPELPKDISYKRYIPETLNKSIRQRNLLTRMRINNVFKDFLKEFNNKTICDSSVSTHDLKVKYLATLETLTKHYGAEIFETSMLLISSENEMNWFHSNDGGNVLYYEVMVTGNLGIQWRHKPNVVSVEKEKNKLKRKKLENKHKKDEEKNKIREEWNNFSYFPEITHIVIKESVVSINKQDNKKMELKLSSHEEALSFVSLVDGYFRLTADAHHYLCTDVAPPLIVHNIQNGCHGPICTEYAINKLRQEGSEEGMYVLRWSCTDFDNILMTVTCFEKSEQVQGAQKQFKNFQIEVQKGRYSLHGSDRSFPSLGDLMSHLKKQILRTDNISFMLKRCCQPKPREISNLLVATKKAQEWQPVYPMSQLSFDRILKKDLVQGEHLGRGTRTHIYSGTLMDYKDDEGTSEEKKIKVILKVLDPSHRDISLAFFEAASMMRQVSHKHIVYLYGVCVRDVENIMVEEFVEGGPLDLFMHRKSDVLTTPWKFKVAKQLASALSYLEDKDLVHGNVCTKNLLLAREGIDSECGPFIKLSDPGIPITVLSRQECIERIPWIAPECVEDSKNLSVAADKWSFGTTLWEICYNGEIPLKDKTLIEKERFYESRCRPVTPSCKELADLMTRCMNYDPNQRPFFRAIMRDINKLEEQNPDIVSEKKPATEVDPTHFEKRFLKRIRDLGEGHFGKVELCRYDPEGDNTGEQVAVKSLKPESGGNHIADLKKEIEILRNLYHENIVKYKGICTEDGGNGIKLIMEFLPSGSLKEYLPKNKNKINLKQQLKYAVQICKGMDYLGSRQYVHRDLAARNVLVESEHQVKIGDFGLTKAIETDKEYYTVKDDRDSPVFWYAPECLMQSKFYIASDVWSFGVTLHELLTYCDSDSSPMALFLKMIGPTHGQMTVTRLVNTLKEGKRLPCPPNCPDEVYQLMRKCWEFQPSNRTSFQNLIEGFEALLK
T2 sequence (P29597 whole entry): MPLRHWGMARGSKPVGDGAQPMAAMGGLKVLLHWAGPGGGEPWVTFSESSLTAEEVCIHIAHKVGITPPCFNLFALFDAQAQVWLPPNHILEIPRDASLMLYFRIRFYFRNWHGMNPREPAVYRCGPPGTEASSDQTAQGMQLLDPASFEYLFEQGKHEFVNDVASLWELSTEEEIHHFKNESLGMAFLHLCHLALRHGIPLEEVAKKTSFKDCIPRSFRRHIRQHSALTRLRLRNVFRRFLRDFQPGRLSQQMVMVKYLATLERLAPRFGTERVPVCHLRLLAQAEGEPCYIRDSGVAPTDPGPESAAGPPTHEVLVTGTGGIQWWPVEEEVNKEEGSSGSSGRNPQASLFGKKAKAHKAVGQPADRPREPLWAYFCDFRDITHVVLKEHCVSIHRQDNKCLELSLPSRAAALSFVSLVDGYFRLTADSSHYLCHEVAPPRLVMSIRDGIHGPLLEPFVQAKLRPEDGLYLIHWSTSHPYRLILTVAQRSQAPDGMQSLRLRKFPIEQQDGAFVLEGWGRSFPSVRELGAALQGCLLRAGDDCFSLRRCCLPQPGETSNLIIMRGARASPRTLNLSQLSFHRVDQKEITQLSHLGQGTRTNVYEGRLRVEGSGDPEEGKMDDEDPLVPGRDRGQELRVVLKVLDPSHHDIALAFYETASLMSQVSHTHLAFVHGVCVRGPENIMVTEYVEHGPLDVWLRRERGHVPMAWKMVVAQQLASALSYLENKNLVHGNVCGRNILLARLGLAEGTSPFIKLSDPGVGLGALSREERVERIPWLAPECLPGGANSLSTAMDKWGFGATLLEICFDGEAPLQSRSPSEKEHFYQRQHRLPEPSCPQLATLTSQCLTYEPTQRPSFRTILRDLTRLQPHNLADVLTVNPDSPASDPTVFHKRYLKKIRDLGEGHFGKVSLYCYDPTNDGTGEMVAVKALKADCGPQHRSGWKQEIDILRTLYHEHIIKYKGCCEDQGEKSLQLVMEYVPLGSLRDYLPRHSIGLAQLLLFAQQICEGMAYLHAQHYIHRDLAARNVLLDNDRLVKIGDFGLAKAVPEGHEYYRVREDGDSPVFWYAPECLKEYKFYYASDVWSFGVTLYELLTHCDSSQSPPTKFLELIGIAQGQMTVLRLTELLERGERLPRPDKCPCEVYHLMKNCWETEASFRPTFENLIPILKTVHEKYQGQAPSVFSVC
T4 sequence (O60674 whole entry): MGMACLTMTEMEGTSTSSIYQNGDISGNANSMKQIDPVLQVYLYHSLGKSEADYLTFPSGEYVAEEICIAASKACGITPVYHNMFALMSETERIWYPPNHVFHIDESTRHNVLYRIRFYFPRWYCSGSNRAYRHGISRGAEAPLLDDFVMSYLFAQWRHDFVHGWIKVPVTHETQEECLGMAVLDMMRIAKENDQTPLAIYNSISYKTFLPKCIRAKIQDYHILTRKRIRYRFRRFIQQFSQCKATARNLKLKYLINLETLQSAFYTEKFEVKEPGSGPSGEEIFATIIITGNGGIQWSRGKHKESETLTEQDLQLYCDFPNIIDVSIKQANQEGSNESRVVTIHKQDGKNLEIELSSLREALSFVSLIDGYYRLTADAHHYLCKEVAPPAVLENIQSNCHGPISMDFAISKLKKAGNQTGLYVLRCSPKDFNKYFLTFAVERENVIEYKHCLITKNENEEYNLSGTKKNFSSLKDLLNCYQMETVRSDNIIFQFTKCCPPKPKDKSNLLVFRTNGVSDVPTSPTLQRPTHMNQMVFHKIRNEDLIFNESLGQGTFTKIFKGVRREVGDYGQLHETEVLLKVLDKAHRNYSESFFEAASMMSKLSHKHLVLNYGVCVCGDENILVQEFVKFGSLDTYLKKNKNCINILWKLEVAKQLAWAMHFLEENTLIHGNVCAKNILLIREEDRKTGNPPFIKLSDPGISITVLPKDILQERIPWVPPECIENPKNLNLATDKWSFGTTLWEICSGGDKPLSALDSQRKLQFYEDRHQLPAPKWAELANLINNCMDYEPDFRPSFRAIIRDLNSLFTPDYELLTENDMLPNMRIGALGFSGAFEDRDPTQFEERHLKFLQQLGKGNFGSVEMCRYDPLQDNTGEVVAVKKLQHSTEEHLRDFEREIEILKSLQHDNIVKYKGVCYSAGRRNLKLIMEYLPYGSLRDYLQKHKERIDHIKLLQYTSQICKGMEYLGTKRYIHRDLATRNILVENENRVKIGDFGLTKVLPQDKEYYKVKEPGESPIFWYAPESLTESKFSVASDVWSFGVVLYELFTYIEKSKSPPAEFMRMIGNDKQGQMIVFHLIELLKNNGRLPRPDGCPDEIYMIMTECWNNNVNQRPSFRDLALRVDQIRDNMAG

Compound | IC50 (Human JAK3 [1]) [nM] | inhibition at 1 µM (Human TYK2 [2]) [%] | inhibition at 1 µM (Human JAK1 [3]) [%] | IC50 (Human JAK2 [4]) [nM] | IC50 (Human JAK1 [5]) [nM] | inhibition at 1 µM (Human JAK2 [6]) [%] | IC50 (Human TYK2 [7]) [nM] | inhibition at 1 µM (Human JAK3 [8]) [%] | JAK1 inhibitory activity relative to the racemic mixture (Example 55) (Human JAK1 [5]; from IC50 values 8.5 nM vs 29.3 nM) | inhibition at 1 µM (Human TYK2 [7]; read-out: TYK2 kinase-phosphorylation inhibitory level (% inhibition)) [%] | inhibition of hind paw edema as compared to the control group (DBA/1J mice; 49th day after the first immunization (end of measurement)) | inhibition of hind paw edema as compared to the control group (DBA/1J mice; from the 31st day after the first immunization onwards) [%]
CCS(=O)(=O)N1CC(N(C)c2ncnc3[nH]ccc23)C2(CC2)C1 (racemic) [Example 62, N-(5-(ethylsulfonyl)-5-azaspiro[2.4]heptan-7-yl)-N-methyl-7H-pyrrolo[2,3-d]pyrimidin-4-amine] | > 1000 | 67 | 95 | 422 | 2.8 | 59 | 198 | 59 | – | – | – | –
CN(c1ncnc2[nH]ccc12)[C@H]1CN(S(=O)(=O)c2cccc(C#N)c2)CC12CC2 [Example 41, (R)-3-((7-(methyl(7H-pyrrolo[2,3-d]pyrimidin-4-yl)amino)-5-azaspiro[2.4]heptan-5-yl)sulfonyl)benzonitrile] | 110 | 97 | 99 | 58.6 | 5.8 | 99 | 24.7 | 77 | – | – | – | –
CN(c1ncnc2[nH]ccc12)[C@@H]1CN(C(=O)c2ccc(C#N)cc2)CC12CC2 [Example 68, (S)-4-(7-(methyl(7H-pyrrolo[2,3-d]pyrimidin-4-yl)amino)-5-azaspiro[2.4]heptane-5-carbonyl)benzonitrile] | – | 2 | 14 | – | – | -5 | – | -7 | – | – | – | –
CCS(=O)(=O)N1C[C@@H](N(C)c2ncnc3[nH]ccc23)C2(CC2)C1 [Example 71, (S)-N-(5-(ethylsulfonyl)-5-azaspiro[2.4]heptan-7-yl)-N-methyl-7H-pyrrolo[2,3-d]pyrimidin-4-amine] | – | 12 | 40 | – | – | 13 | – | -22 | – | – | – | –
CN(c1ncnc2[nH]ccc12)[C@@H]1CN(S(=O)(=O)c2ccccc2)CC12CC2 [Example 72, (S)-N-methyl-N-(5-(phenylsulfonyl)-5-azaspiro[2.4]heptan-7-yl)-7H-pyrrolo[2,3-d]pyrimidin-4-amine] | – | 28 | 55 | – | – | 10 | – | -1 | – | – | – | –
CCN1C[C@H](N(C)c2ncnc3[nH]ccc23)C2(CC2)C1 [Example 73, (R)-N-(5-ethyl-5-azaspiro[2.4]heptan-7-yl)-N-methyl-7H-pyrrolo[2,3-d]pyrimidin-4-amine] | – | -7 | 42 | – | – | -6 | – | 1 | – | – | – | –
C[C@@H]1CCN(C(=O)CC#N)C[C@@H]1N(C)c1ncnc2[nH]ccc12 [tofacitinib citrate, reference compound] | – | – | – | – | – | – | – | – | – | 100 | – | –

More lines, main results first:

IC50 (Human JAK3 [1]) [nM] | inhibition at 1 µM (Human TYK2 [2]) [%] | inhibition at 1 µM (Human JAK1 [3]) [%] | IC50 (Human JAK2 [4]) [nM] | IC50 (Human JAK1 [5]) [nM] | inhibition at 1 µM (Human JAK2 [6]) [%] | IC50 (Human TYK2 [7]) [nM] | inhibition at 1 µM (Human JAK3 [8]) [%] | JAK1 inhibitory activity relative to the racemic mixture (Example 55) (Human JAK1 [5]; from IC50 values 8.5 nM vs 29.3 nM) | inhibition at 1 µM (Human TYK2 [7]; read-out: TYK2 kinase-phosphorylation inhibitory level (% inhibition)) [%] | Compound | inhibition of hind paw edema as compared to the control group (DBA/1J mice; 49th day after the first immunization (end of measurement)) | inhibition of hind paw edema as compared to the control group (DBA/1J mice; from the 31st day after the first immunization onwards) [%]
694 | 58 | 95 | 148 | 29.3 | 53 | 40.4 | 30 | – | – | CN(c1ncnc2[nH]ccc12)C1CN(C(=O)CC#N)CC12CC2 (racemic) [Example 55, 3-(7-(methyl(7H-pyrrolo[2,3-d]pyrimidin-4-yl)amino)-5-azaspiro[2.4]heptan-5-yl)-3-oxopropanenitrile] | – | –
1090 | 82 | 95 | 412 | 8.5 | 79 | 252 | 50 | about 3.5 fold | – | CN(c1ncnc2[nH]ccc12)[C@H]1CN(C(=O)CC#N)CC12CC2 [Example 5, (R)-3-(7-(methyl(7H-pyrrolo[2,3-d]pyrimidin-4-yl)amino)-5-azaspiro[2.4]heptan-5-yl)-3-oxopropanenitrile] | about 64% | ≥ 60
– | 0 | 16 | – | – | -9 | – | -1 | – | – | CCC(=O)N1C[C@@H](N(C)c2ncnc3[nH]ccc23)C2(CC2)C1 [Example 64, (S)-1-(7-(methyl(7H-pyrrolo[2,3-d]pyrimidin-4-yl)amino)-5-azaspiro[2.4]heptan-5-yl)propan-1-one] | – | –
– | 14 | 41 | – | – | 12 | – | -16 | – | – | CN(c1ncnc2[nH]ccc12)[C@@H]1CN(C(=O)CN=[N+]=[N-])CC12CC2 [Example 65, (S)-2-azido-1-(7-(methyl(7H-pyrrolo[2,3-d]pyrimidin-4-yl)amino)-5-azaspiro[2.4]heptan-5-yl)ethan-1-one] | – | –
> 1000 | -16 | 65 | > 1000 | 787 | -15 | > 1000 | 17 | – | – | CN(c1ncnc2[nH]ccc12)[C@@H]1CN(C(=O)CC#N)CC12CC2 [Example 66, (S)-3-(7-(methyl(7H-pyrrolo[2,3-d]pyrimidin-4-yl)amino)-5-azaspiro[2.4]heptan-5-yl)-3-oxopropanenitrile] | – | –
– | -4 | 5 | – | – | -7 | – | 0 | – | – | CNC(=O)CC(=O)N1C[C@@H](N(C)c2ncnc3[nH]ccc23)C2(CC2)C1 [Example 67, (S)-N-methyl-3-(7-(methyl(7H-pyrrolo[2,3-d]pyrimidin-4-yl)amino)-5-azaspiro[2.4]heptan-5-yl)-3-oxopropanamide] | – | –
– | 36 | 58 | – | – | 6 | – | 9 | – | – | CN(c1ncnc2[nH]ccc12)[C@@H]1CN(C(=S)CC#N)CC12CC2 [Example 69, (S)-3-(7-(methyl(7H-pyrrolo[2,3-d]pyrimidin-4-yl)amino)-5-azaspiro[2.4]heptan-5-yl)-3-thioxopropanenitrile] | – | –
– | 5 | 31 | – | – | 24 | – | -3 | – | – | CC(C)COC(=O)N1C[C@@H](N(C)c2ncnc3[nH]ccc23)C2(CC2)C1 [Example 70, isobutyl (S)-7-(methyl(7H-pyrrolo[2,3-d]pyrimidin-4-yl)amino)-5-azaspiro[2.4]heptane-5-carboxylate] | – | –
